From patent US5567704A, “R-enatiomerically pure hydroxylated xanthine compounds to treat baldness” (priority 1995, dated 1996)

Experiments:
[1] = tested on: IL-1α; assay: mouse plasma IL-1α ELISA after endotoxin; assay type: in vivo; settings: for Plasma IL-1: LPS + CT-1501R
Protocol: (§1) For ELISA measurements of cytokine levels in plasma, blood was collected by retro-orbital or cardiac puncture of anesthetized mice, immediately centrifuged and the EDTA plasma stored at -70° C. Particulate free plasma was thawed on ice and cytokine levels determined utilizing commercial ELISA assays with normal mouse plasma used to generate standard curves. Murine tumor necrosis factor-α and interleukin-1αkits were purchased from Genzyme (Cambridge, Mass.) and Endogen (Boston, Mass.), respectively. Each data point was an average of two ELISA measurements made from EDTA […] pooled from three mice. The data summarized in Table 3 were compiled from two independent experiments; data from Table 4 and 5 were from single experiments of three mice per data point.
In particular, peak levels observed at 6, 12 and 18 hours post endotoxin were decreased 1.2, 4.3 and 3.2-fold, respectively. Finally, IL-6 measurements were made in a similar manner (Table 6, FIG. 8).

[2] = tested on: smooth muscle cell; assay: smooth muscle proliferation stimulated by PDGF and IL-1; assay type: cell-based
From the text: CT1501R and PTX were separately added to the cells two hours prior to activation with PDGF and IL-1.

[3] = tested on: TNF-α; assay: mouse plasma TNF-α ELISA after endotoxin; assay type: in vivo; settings: for Plasma TNF: LPS + CT-1501R
Protocol: as §1
Levels of TNF-α, IL-1α and IL-6 were measured in the plasma of mice as a function of time following treatment with S. abortus endotoxin. […] TNF-α levels peaked within 1 hour of treatment of endotoxin (Table 4 and FIG. 6). Treatment of the mice with CT1501R decreased the levels of TNF-α in the EDTA plasma of endotoxin treated mice at all time points measured. In particular, peak levels of TNF-α at 0.5 and 1 hour post endotoxin were decreased 2.5 and 2.6 fold respectively in the CT1501R treated mice.

[4] = tested on: HUVEC; assay: adhesion of U937 cells to activated HUVEC; assay type: cell-based, human; settings: 250 μM, FIG. 21
Protocol: Murine peritoneal exudate cell macrophages (PEC) were isolated by perfusion of mouse peritoneum and plated into 96-well trays at 5×10^5 cells per well. Cells were stimulated with 5 μg/ml Salmonella abortus equi -derived endotoxin (LPS; Sigma Chemical Co., L-1887) or […] IL-1α (Genzyme; Cambridge, Mass.) with or without the addition of CT1501R added to the cultures one hour prior to addition of the stimulus. At various times thereafter, supernatants were removed and levels of either TNF-α or IL-1α were assayed using commercial 96-well microtiter immunoassay kits (Genzyme; TNF; Endogen, Boston, Mass.; IL-1α) according to manufacturer's specifications. For the adhesion studies, early passage human umbilical vein endothelial cells (HUVEC) were obtained. from commercial suppliers (Clonetics, San Diego, Calif. or Cell Systems, Seattle, Wash.) and cultured in defined, Hepes buffered, serum free medium (Cell Systems, cat 301-180) supplemented with acidic FGF (Cell Systems cat 401-111). 4000 cells were plated into each well of a 96-well microtiter plate and allowed to incubate for 72 hrs at 37° C. […] After addition of […] Hanks Balanced Salt Solution (HBSS), the microtiter plate was then analyzed on a Millipore Cytofluor fluorescent plate reader (excitation 488 nm; emission 525 nm). […]

C[C@@H](O)CCCCn1c(=O)c2c(ncn2C)n(C)c1=O [CT1501R, (R)-1-(5-hydroxyhexyl)-3,7-dimethylxanthine]
fold decrease of plasma IL-1α ([1]; 6 hours post endotoxin): 1.2 fold | fold decrease of plasma IL-1α ([1]; 12 hours post endotoxin): 4.3 fold | fold decrease of plasma IL-1α ([1]; 18 hours post endotoxin): 3.2 fold | Plasma IL-1 ([1]; 0 hours post LPS): 0 pg/mL | Plasma IL-1 ([1]; 0.17 hours post LPS): 0 pg/mL | Plasma IL-1 ([1]; 0.5 hours post LPS): 22 pg/mL | Plasma IL-1 ([1]; 1 hour post LPS): 10.8 pg/mL | Plasma IL-1 ([1]; 3 hours post LPS): 33.2 pg/mL | Plasma IL-1 ([1]; 6 hours post LPS): 133 pg/mL | Plasma IL-1 ([1]; 12 hours post LPS): 32.3 pg/mL | Plasma IL-1 ([1]; 18 hours post LPS): 46.7 pg/mL | Plasma IL-1 ([1]; 24 hours post LPS): 43.5 pg/mL | Plasma IL-1 ([1]; 36 hours post LPS): 18.8 pg/mL | Plasma IL-1 ([1]; 48 hours post LPS): 0 pg/mL | activity compared with PTX, smooth muscle cell proliferation ([2]; PDGF and IL-1, FIG. 4): more active than PTX | inhibition of smooth muscle cell proliferation ([2]; PDGF and IL-1, drug added two hours prior, FIG. 4): inhibited smooth muscle cell proliferation at the higher doses tested | fold decrease of plasma TNF-α ([3]; 0.5 hour post endotoxin): 2.5 fold | fold decrease of plasma TNF-α ([3]; 1 hour post endotoxin): 2.6 fold | Plasma TNF ([3]; 0 hours post LPS): 0 pg/mL | Plasma TNF ([3]; 0.17 hours post LPS): 6 pg/mL | Plasma TNF ([3]; 0.5 hours post LPS): 390 pg/mL | Plasma TNF ([3]; 1 hour post LPS): 1728 pg/mL | Plasma TNF ([3]; 2 hours post LPS): 940 pg/mL | Plasma TNF ([3]; 4 hours post LPS): 400 pg/mL | Plasma TNF ([3]; 6 hours post LPS): 350 pg/mL | adhesiveness of activated HUVEC for U937 cells ([4]; 1 hour prior to TNF-α, IL-1α or LPS): marked suppression in the relative adhesiveness of the activated HUVEC | background attachment of U937 cells to HUVEC ([4]; non-activated HUVEC): no significant effect on background attachment of U937 cells to HUVEC
